From US20100273876A1, “ANTIBACTERIAL FORMULATION COMPRISING A DIALKYL SULPHOSUCCINATE AND A CARBANILIDE ANTIBACTERIAL AGENT” (priority 2007, published 2010)

Assays:
Assay in all cases: (S)DDA disc diffusion
[1] = system: P. granulosum NCTC 11865; assay type: cell-based, Propionibacterium granulosum
Description: (§1) The propionibacteria were cultured and maintained on Wilkins-Chalgren Anaerobe Medium (agar and broth) at pH 6.0; all cultures were incubated anaerobically at 37° C. for 72 hours.
(§2) A sterile paper disc was impregnated with a sample of the test compound in a suitable solvent and 30 minutes allowed for the solvents to evaporate (where possible). The disc was then placed on an agar plate onto which the test micro-organism had been inoculated. The plate was then incubated under the conditions described above, following which it was examined visually for signs of microbial growth. If the test compound had antimicrobial activity, a circular zone of no growth would be obtained around the disc. The diameter of this zone of “inhibition” was measured using a ProtoCOL™ automated zone sizer (Synbiosis, Cambridge, UK). In general, a greater diameter and/or area of the zone of inhibition indicates a greater antimicrobial activity in the relevant test compound, although other factors such as test compound mobility through the agar gel may also influence the result.
(§3) Two test a compounds A and B were placed on a single paper disc and the above described DDA procedure repeated. An increase in diameter of the zone of inhibition, compared to the greater of the zone diameters for the two compounds individually, was taken to indicate potential antimicrobial synergy. In practical terms, an increase of greater than 5 mm could be treated as significant.
(§4) Both the DDA and the SDDA test may be carried out using an agar gel supplemented with lipid and/or salt to simulate some of the major components present in human skin and to assess whether these substances might reduce the antimicrobial activity observed for the test compound. Performance under these conditions can provide a more reliable indication of activity on topical application. The supplements used in Examples 1, 11, 12 and 13 below were lipid (either Tween™ 80 at 1% v/v (Example 1) or triolein at 1% v/v (Examples 11, 12 and 13) and sodium chloride (100 mM).

[2] = system: P. granulosum PRP-005; assay type: cell-based, Propionibacterium granulosum
Description: as §1, §2, §3, §4

[3] = system: P. granulosum PRP-006; assay type: cell-based, Propionibacterium granulosum
Description: as §1, §2, §3, §4

[4] = system: P. granulosum PRP-019; assay type: cell-based, Propionibacterium granulosum
Description: as §1, §2, §3, §4

[5] = system: P. granulosum PRP-021; assay type: cell-based, Propionibacterium granulosum
Description: as §1, §2, §3, §4

[6] = system: P. granulosum PRP-043; assay type: cell-based, Propionibacterium granulosum
Description: as §1, §2, §3, §4

[7] = system: P. granulosum PRP-044; assay type: cell-based, Propionibacterium granulosum
Description: as §1, §2, §3, §4

[8] = system: P. granulosum PRP-055; assay type: cell-based, Propionibacterium granulosum
Description: as §1, §2, §3, §4

[9] = system: Por. gingivalis NCTC 11834; assay type: cell-based, Porphyromonas gingivalis; conditions: for DDA: 200 μg per disc
Description: The P. gingivalis strains were cultured and maintained on Wilkins-Chalgren Anaerobe Medium (agar and broth) at pH 7.0; all cultures were incubated anaerobically at 37° C. for 5-7 days.
as §2, §3
For the (S)DDA experiments; 200 μg of the DOS salts and/or the TCC were loaded onto each disc for Por. gingivalis experiments. For the Strep. mutans experiments, 200 μg of the TCC and 50 μg of DOSS were used on each disc. All the experiments were conducted in triplicate.

[10] = system: B. cereus ATCC 11778; assay type: cell-based, Bacillus cereus; conditions: 200 μg per disc
Description: as §2
(§5) Two test a compounds A and B were placed on a single paper disc and the above described DDA procedure repeated. […]
(§6) The activities of DOSS and TCC were determined, using (S)DDAs, against a panel of further test micro-organisms, namely B. cereus ATCC 11778, Bact. fragilis ATCC 25285, Clost. difficile […] and E. faecalis ATCC 29212. […]

[11] = system: Clost. difficile ATCC 7000057; assay type: cell-based, Clostridium difficile; conditions: 200 μg per disc
Description: as §2, §5, §6

[12] = system: E. faecalis ATCC 29212; assay type: cell-based, Enterococcus faecalis; conditions: 200 μg per disc
Description: as §2, §5, §6

[13] = P. granulosum NCTC 11865 (resistance None), 200 μg TCC or 50 μg DOSS per disc
[14] = P. granulosum PRP-005 (MLSK), 200 μg TCC or 50 μg DOSS per disc
[15] = P. granulosum PRP-006 (MLS), 200 μg TCC or 50 μg DOSS per disc
[16] = P. granulosum PRP-019 (MLSK), 200 μg TCC or 50 μg DOSS per disc
[17] = P. granulosum PRP-021 (MLS), 200 μg TCC or 50 μg DOSS per disc
[18] = P. granulosum PRP-043 (MLS), 200 μg TCC or 50 μg DOSS per disc
[19] = P. granulosum PRP-044 (MLS), 200 μg TCC or 50 μg DOSS per disc
[20] = P. granulosum PRP-055 (resistance None), 200 μg TCC or 50 μg DOSS per disc

With dioctyl sodium sulphosuccinate [DOSS] the DDA [1, 13] was 14.70 mm, the DDA ([1]; P. granulosum NCTC 11865, 200 μg per disc) was 39.84 mm and the “DDA + salt” value ([1]; P. granulosum NCTC 11865, 200 μg per disc, sodium chloride 100 mM) was 37.98 mm. The “DDA + lipid” value ([1]; P. granulosum NCTC 11865, 200 μg per disc, triolein 1% v/v) was 38.60 mm, the DDA [2, 14] was 26.31 mm and the DDA ([2]; P. granulosum PRP-005, 200 μg per disc) was 42.96 mm. The “DDA + salt” value ([2]; P. granulosum PRP-005, 200 μg per disc, sodium chloride 100 mM) was 46.38 mm, the “DDA + lipid” value ([2]; P. granulosum PRP-005, 200 μg per disc, triolein 1% v/v) was 40.47 mm and the DDA [3, 15] was 19.01 mm. The DDA ([3]; P. granulosum PRP-006, 200 μg per disc) was 40.47 mm, the “DDA + salt” value ([3]; P. granulosum PRP-006, 200 μg per disc, sodium chloride 100 mM) was 41.09 mm and the “DDA + lipid” value ([3]; P. granulosum PRP-006, 200 μg per disc, triolein 1% v/v) was 40.16 mm. For the same compound, the DDA [4, 16] was 19.94 mm, the DDA ([4]; P. granulosum PRP-019, 200 μg per disc) was 41.71 mm and the “DDA + salt” value ([4]; P. granulosum PRP-019, 200 μg per disc, sodium chloride 100 mM) was 42.02 mm. For the same compound, the “DDA + lipid” value ([4]; P. granulosum PRP-019, 200 μg per disc, triolein 1% v/v) was 42.65 mm, the DDA [5, 17] was 0.00 mm and the DDA ([5]; P. granulosum PRP-021, 200 μg per disc) was 39.53 mm. For the same compound, the “DDA + salt” value ([5]; P. granulosum PRP-021, 200 μg per disc, sodium chloride 100 mM) was 38.60 mm, the “DDA + lipid” value ([5]; P. granulosum PRP-021, 200 μg per disc, triolein 1% v/v) was 42.02 mm and the DDA [6, 18] was 8.94 mm. For the same compound, the DDA ([6]; P. granulosum PRP-043, 200 μg per disc) was 40.16 mm, the “DDA + salt” value ([6]; P. granulosum PRP-043, 200 μg per disc, sodium chloride 100 mM) was 35.80 mm and the “DDA + lipid” value ([6]; P. granulosum PRP-043, 200 μg per disc, triolein 1% v/v) was 35.18 mm. The DDA [7, 19] was 0.00 mm, the DDA ([7]; P. granulosum PRP-044, 200 μg per disc) was 38.29 mm and the “DDA + salt” value ([7]; P. granulosum PRP-044, 200 μg per disc, sodium chloride 100 mM) was 37.67 mm. The “DDA + lipid” value ([7]; P. granulosum PRP-044, 200 μg per disc, triolein 1% v/v) was 35.49 mm, the DDA [8, 20] was 10.07 mm and the DDA ([8]; P. granulosum PRP-055, 200 μg per disc) was 40.16 mm. The “DDA + salt” value ([8]; P. granulosum PRP-055, 200 μg per disc, sodium chloride 100 mM) was 38.29 mm, the “DDA + lipid” value ([8]; P. granulosum PRP-055, 200 μg per disc, triolein 1% v/v) was 36.42 mm and the SDDA area increase [9] was 54.34%. For the same compound, the SDDA increase [9] was 12.39 mm, the “SDDA with TCC” value ([9]; 200 μg DOS salt + 200 μg TCC on one disc) was 63.52 mm and the DDA [9] was 51.13 mm. It also gave a DDA [10] of 18.10 mm, a DDA [11] of 0.0 mm and a DDA [12] of 10.31 mm.

`O=C(Nc1ccc(Cl)cc1)Nc1ccc(Cl)c(Cl)c1` [TCC, N-(4-chlorophenyl)-N′-(3,4-dichlorophenyl) urea] showed a DDA [1, 13] of 17.78 mm, a DDA [2, 14] of 12.13 mm and a DDA [3, 15] of 10.17 mm. For the same compound, the DDA [4, 16] was 0.00 mm, the DDA [5, 17] was 0.00 mm and the DDA [6, 18] was 8.84 mm. It also gave a DDA [7, 19] of 0.00 mm, a DDA [8, 20] of 17.16 mm and a DDA [9] of 23.73 mm. It also gave a DDA [10] of 12.96 mm, a DDA [11] of 0.0 mm and a DDA [12] of 9.68 mm.
